Structures can show the parent of a compound that is named as a salt. Calls of active or inactive are those of the source. No cut-off for these calls is given here.
How the values were obtained:
[1] = biological target: Platelet-derived growth factor receptor beta (Mus musculus, UniProt P05622); assay: Inhibition of mouse PDGFRbeta expressed in SF9 insect cells by TR-FRET assay
[2] = biological target: T1, Serine/threonine-protein kinase pim-1 (Homo sapiens, UniProt P11309); assay: Inhibition of recombinant PIM1 (unknown origin) expressed in Escherichia coli BL21(DE3) after 1 hr by HTRF assay
Target sequence in this assay (P11309 whole entry): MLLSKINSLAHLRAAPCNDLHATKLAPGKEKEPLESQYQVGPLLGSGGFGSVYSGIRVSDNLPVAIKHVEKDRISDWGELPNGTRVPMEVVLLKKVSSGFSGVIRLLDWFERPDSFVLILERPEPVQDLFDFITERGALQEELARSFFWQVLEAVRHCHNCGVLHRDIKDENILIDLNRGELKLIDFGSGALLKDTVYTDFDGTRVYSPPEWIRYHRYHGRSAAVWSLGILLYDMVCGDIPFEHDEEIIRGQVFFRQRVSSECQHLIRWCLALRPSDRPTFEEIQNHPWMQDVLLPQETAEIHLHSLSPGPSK

[3] = biological target: T1, Serine/threonine-protein kinase pim-1; assay: Inhibition of PIM1-mediated BAD phosphorylation in human K562 cells after 12 hrs by Western blotting analysis; assay type: cell-based
Target sequence in this assay (P11309 whole entry, looked up): as the sequence (P11309 whole entry) above

[4] = biological target: T1, Serine/threonine-protein kinase pim-1; assay: Inhibition of PIM1 (unknown origin) using [gamma33P]ATP assessed as residual activity at 1 uM after 120 mins by radiometric assayATP
Target sequence in this assay (P11309 whole entry, looked up): as the sequence (P11309 whole entry) above

[5] = biological target: T1, Serine/threonine-protein kinase pim-1; assay: Inhibition of PIM1-mediated BAD phosphorylation in human MV411 cells after 12 hrs by Western blotting analysis; assay type: cell-based; conditions: MV4-11
Target sequence in this assay (P11309 whole entry, looked up): as the sequence (P11309 whole entry) above

[6] = biological target: RAC-alpha serine/threonine-protein kinase (Homo sapiens) (UniProt P31749); assay: Inhibition of AKT1 (unknown origin) using [gamma33P]ATP assessed as residual activity at 1 uM after 120 mins by radiometric assay
MV4-11 [7] = assay: Effect on total BAD level in human MV411 cells at 10 to 100 nM after 12 hrs by Western blotting analysis; assay type: functional, cell-based
[8] = biological target: Casein kinase II subunit alpha' (Homo sapiens) (UniProt P19784); assay: Inhibition of CK2alpha2 (unknown origin) using [gamma33P]ATP assessed as residual activity at 1 uM after 120 mins by radiometric assay
[9] = biological target: Serine/threonine-protein kinase Chk2 (Homo sapiens) (UniProt O96017); assay: Inhibition of CHK2 (unknown origin) using [gamma33P]ATP assessed as residual activity at 1 uM after 120 mins by radiometric assay
MV4-11 [10] = assay: Effect on total PIM1 level in human MV411 cells at 10 to 100 nM after 12 hrs by Western blotting analysis; assay type: functional, cell-based
[11] = biological target: T1, Serine/threonine-protein kinase pim-1; assay: Inhibition of PIM1-mediated BAD phosphorylation in human MV411 cells at 100 nM after 12 hrs by Western blotting analysis; assay type: cell-based; conditions: MV4-11
Target sequence in this assay (P11309 whole entry, looked up): as the sequence (P11309 whole entry) above

[12] = biological target: T2, Tyrosine-protein kinase BTK (Homo sapiens, UniProt Q06187); assay: Inhibition of BTK (unknown origin) using [gamma33P]ATP assessed as residual activity at 1 uM after 120 mins by radiometric assay
[13] = biological target: T1, Serine/threonine-protein kinase pim-1; assay: Inhibition of PIM1-mediated BAD phosphorylation in human K562 cells at 0.1 to 30 uM after 12 hrs by Western blotting analysis; assay type: cell-based
Target sequence in this assay (P11309 whole entry, looked up): as the sequence (P11309 whole entry) above

Casein kinase 2 = Casein kinase 2 (Homo sapiens, UniProt P67870+P68400+P19784+Q8NEV1); assay: Inhibition of human recombinant casein kinase 2 using [gamma-32P] ATP; assay type: protein assay
[14] = biological target: T2, Tyrosine-protein kinase BTK; assay: Inhibition of BTK (unknown origin)
[15] = Inhibition of Mycobacterium tuberculosis protein kinase B

T2 sequence (Q06187 whole entry): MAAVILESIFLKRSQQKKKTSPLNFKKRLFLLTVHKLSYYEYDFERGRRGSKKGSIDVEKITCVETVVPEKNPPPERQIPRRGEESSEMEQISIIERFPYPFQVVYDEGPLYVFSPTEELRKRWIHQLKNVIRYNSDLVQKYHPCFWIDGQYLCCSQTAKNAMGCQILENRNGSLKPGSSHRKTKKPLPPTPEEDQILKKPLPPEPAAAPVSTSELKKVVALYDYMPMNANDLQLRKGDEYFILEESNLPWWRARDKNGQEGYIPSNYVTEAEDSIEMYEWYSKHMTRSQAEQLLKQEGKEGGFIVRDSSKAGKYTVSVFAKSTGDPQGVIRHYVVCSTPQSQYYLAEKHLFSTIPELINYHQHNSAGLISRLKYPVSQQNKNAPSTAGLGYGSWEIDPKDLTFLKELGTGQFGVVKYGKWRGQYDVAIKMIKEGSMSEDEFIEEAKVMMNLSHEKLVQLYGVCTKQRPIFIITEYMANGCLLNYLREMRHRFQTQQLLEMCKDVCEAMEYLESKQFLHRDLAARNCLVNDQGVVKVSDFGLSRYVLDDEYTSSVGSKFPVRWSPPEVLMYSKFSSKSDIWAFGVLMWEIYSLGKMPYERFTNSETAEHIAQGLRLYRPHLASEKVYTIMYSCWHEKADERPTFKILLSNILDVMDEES
RAC-alpha serine/threonine-protein kinase (Homo sapiens), sequence (P31749 whole entry): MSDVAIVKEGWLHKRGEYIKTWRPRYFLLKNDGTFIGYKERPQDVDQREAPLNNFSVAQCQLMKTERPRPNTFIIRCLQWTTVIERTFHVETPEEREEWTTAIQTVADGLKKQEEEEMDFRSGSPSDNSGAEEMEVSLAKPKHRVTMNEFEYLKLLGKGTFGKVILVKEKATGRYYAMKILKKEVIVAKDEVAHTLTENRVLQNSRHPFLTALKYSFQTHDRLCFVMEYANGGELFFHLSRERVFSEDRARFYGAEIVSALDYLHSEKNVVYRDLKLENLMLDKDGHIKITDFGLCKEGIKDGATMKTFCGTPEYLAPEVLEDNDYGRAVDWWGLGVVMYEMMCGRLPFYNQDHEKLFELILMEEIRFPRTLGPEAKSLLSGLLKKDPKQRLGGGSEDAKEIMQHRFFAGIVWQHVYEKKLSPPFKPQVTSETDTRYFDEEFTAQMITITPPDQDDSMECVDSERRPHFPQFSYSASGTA
Casein kinase II subunit alpha' (Homo sapiens), sequence (P19784 whole entry, looked up): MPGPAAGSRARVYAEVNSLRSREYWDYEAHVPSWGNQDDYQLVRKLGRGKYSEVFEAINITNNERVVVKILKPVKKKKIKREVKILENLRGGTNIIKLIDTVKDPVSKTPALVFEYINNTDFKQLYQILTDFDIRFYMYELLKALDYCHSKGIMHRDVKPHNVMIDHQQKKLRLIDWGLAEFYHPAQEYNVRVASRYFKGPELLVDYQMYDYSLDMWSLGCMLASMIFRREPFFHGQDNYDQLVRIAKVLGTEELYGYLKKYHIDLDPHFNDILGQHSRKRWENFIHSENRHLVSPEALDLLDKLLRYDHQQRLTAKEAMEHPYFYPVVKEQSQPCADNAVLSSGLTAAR
Serine/threonine-protein kinase Chk2 (Homo sapiens), sequence (O96017 whole entry): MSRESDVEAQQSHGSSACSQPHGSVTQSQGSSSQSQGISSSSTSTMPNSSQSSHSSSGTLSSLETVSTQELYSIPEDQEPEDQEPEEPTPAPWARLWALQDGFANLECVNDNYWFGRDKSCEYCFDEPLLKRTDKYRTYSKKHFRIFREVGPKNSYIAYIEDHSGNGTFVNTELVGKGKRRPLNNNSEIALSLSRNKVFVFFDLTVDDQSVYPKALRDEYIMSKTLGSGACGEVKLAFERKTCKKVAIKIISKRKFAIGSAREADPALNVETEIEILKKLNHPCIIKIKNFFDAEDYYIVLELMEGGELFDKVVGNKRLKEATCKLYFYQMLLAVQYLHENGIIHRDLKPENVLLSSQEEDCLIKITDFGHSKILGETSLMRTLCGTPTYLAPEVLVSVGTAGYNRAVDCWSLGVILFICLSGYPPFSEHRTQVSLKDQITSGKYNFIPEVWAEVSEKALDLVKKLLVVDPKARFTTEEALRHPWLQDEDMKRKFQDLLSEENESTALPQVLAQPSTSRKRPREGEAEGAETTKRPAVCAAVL
Platelet-derived growth factor receptor beta, sequence (P05622 whole entry): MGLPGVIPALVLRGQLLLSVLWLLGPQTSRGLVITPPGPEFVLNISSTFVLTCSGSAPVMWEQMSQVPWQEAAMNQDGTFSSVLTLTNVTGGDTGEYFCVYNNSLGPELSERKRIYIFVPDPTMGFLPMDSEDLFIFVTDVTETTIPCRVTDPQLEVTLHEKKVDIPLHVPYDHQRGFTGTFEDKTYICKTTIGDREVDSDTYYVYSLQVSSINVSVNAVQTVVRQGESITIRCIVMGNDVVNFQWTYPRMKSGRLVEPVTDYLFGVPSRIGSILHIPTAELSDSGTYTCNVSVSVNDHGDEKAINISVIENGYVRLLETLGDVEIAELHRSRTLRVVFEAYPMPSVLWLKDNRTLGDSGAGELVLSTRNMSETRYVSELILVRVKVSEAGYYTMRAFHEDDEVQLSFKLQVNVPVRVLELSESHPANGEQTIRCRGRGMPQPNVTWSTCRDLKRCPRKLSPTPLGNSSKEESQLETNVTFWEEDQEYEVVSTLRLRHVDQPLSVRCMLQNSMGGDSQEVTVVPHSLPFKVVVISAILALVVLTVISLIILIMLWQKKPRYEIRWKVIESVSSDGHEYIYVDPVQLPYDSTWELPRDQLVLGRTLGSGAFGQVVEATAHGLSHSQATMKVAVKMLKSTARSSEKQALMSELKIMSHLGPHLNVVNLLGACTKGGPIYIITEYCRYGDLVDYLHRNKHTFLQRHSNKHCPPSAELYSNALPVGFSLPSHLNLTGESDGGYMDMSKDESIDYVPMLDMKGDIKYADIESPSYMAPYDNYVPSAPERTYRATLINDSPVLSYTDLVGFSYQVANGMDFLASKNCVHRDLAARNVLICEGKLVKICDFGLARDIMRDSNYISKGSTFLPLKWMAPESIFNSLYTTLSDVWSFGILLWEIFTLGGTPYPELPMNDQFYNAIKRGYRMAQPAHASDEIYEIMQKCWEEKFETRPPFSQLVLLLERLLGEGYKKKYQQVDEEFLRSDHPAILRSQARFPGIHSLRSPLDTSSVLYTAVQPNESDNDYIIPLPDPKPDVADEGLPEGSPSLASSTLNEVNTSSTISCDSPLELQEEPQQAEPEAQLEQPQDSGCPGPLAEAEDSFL

SMILES: CNC(=O)c1cc(Oc2ccc(NC(=O)Nc3ccc(Cl)c(C(F)(F)F)c3)cc2)ccn1 [SORAFENIB]
- IC50 [1]: < 100 nM

SMILES: O=C1c2c(O)ccc(O)c2C(=O)c2c(NCCNCCO)ccc(NCCNCCO)c21 [MITOXANTRONE HYDROCHLORIDE]
- IC50 [2]: 50.9 nM

SMILES: O=C1c2c(O)ccc(O)c2C(=O)c2c(NCCNCCO)ccc(NCCNCCO)c21
- inhibition [3]: Dose-dependent effect
- Activity [4]: 0.86%
- inhibition [5]: Dose-dependent effect
- Activity [6]: 109%
- Activity (MV4-11 [7]): inactive
- Activity [8]: 81.8%
- Activity [9]: 59.7%
- Activity (MV4-11 [10]): inactive
- inhibition [11]: Active
- Activity [12]: 45.9%
- inhibition [13]: Active

SMILES: O=C1c2c(O)ccc(O)c2C(=O)c2c(NCCNCCO)ccc(NCCNCCO)c21 [MITOXANTRONE]
- IC50 (Casein kinase 2): 660 nM
- IC50 [14]: 1000 nM
- IC50 [15]: 800 nM
